Where “and” joins values, the source holds several entries; their conditions need not be identical. Identical values can stand only once.
Experiment: Whole blood concentrations after IP administration to mice (LC-MS/MS)
Format: in vivo, mouse
Procedure: Shown below are whole blood concentrations following administration of the compound of Formula II to mice. The compound of Formula II was administered to mice at 2 mg/kg or 10 mg/kg for three days and the concentration of the compound in whole blood determined. These determinations were made using protein precipitation, liquid chromatography (LC), and mass spectrometry (MS/MS). Ten μl aliquots of whole blood and matrix calibration standards were distributed in a 96-well plate; 10 μl aliquots of blank matrix for matrix blanks and control blanks were included as controls. Ten μl of water was added to each sample followed by vortexing. One hundred sixty […] of internal standard was added to each sample except the matrix blanks; 160 μl 70:30 water:acetonitrile (ACN) was added to matrix blanks. This was followed by a […]. One hundred fifty μl of the resultant supernatant was then transferred to a new 96-well plate and the samples blown to dryness at 35° C. The resultant product was then reconstituted with 90 μl ACN.

## CO[C@H]1C[C@@H]2CC[C@@H](C)[C@@](O)(C2)C(=O)C(=O)N2CCCC[C@H]2C(=O)O[C@H]([C@H](C)C[C@H]2C[C@H]3C[C@@H]2C[C@@H]3O)CC(=O)[C@H](C)/C=C(\C)[C@@H](O)[C@@H](OC)C(=O)[C@H](C)C[C@H](C)/C=C/C=C/C=C/1C [Formula II, C37-[(1R,2S,4R,5S)-5-hyhroxybicyclo[2.2.1]heptane] rapamycin]
2 mg/kg IP QD x 3 days, Day 1, 1.00 h, individual animals 7, 8, 9
  Formula II Concentrations in Mouse Whole Blood: 452 ng/mL and 380 ng/mL and 317 ng/mL
2 mg/kg IP QD x 3 days, Day 1, 1.00 h
  Formula II Concentrations in Mouse Whole Blood, Mean: 383 ng/mL
2 mg/kg IP QD x 3 days, Day 1, 2.00 h, individual animals 7, 8, 9
  Formula II Concentrations in Mouse Whole Blood: 415 ng/mL (2×) and 378 ng/mL
2 mg/kg IP QD x 3 days, Day 1, 2.00 h
  Formula II Concentrations in Mouse Whole Blood, Mean: 403 ng/mL
2 mg/kg IP QD x 3 days, Day 1, 6.00 h, individual animals 7, 8, 9
  Formula II Concentrations in Mouse Whole Blood: 382 ng/mL and 520 ng/mL and 490 ng/mL
2 mg/kg IP QD x 3 days, Day 1, 6.00 h
  Formula II Concentrations in Mouse Whole Blood, Mean: 464 ng/mL
2 mg/kg IP QD x 3 days, Day 1, 24.0 h, individual animals 7, 8, 9
  Formula II Concentrations in Mouse Whole Blood: 12.2 ng/mL and 18.4 ng/mL and 14.7 ng/mL
2 mg/kg IP QD x 3 days, Day 1, 24.0 h
  Formula II Concentrations in Mouse Whole Blood, Mean: 15.1 ng/mL
2 mg/kg IP QD x 3 days, Day 2, 1.00 h, individual animals 7, 8, 9
  Formula II Concentrations in Mouse Whole Blood: 481 ng/mL and 208 ng/mL and 524 ng/mL
2 mg/kg IP QD x 3 days, Day 2, 1.00 h
  Formula II Concentrations in Mouse Whole Blood, Mean: 404 ng/mL
2 mg/kg IP QD x 3 days, Day 2, 2.00 h, individual animals 7, 8, 9
  Formula II Concentrations in Mouse Whole Blood: 501 ng/mL and 233 ng/mL and 570 ng/mL
2 mg/kg IP QD x 3 days, Day 2, 2.00 h
  Formula II Concentrations in Mouse Whole Blood, Mean: 435 ng/mL
2 mg/kg IP QD x 3 days, Day 2, 6.00 h, individual animals 7, 8, 9
  Formula II Concentrations in Mouse Whole Blood: 553 ng/mL and 632 ng/mL and 552 ng/mL
2 mg/kg IP QD x 3 days, Day 2, 6.00 h
  Formula II Concentrations in Mouse Whole Blood, Mean: 579 ng/mL
2 mg/kg IP QD x 3 days, Day 2, 24.0 h, individual animals 7, 8, 9
  Formula II Concentrations in Mouse Whole Blood: 15.3 ng/mL and 80.6 ng/mL and 35.2 ng/mL
2 mg/kg IP QD x 3 days, Day 2, 24.0 h
  Formula II Concentrations in Mouse Whole Blood, Mean: 43.7 ng/mL
2 mg/kg IP QD x 3 days, Day 3, 1.00 h, individual animals 7, 8, 9
  Formula II Concentrations in Mouse Whole Blood: 628 ng/mL and 726 ng/mL and 600 ng/mL
2 mg/kg IP QD x 3 days, Day 3, 1.00 h
  Formula II Concentrations in Mouse Whole Blood, Mean: 651 ng/mL
2 mg/kg IP QD x 3 days, Day 3, 2.00 h, individual animals 7, 8, 9
  Formula II Concentrations in Mouse Whole Blood: 478 ng/mL and 489 ng/mL and 535 ng/mL
2 mg/kg IP QD x 3 days, Day 3, 2.00 h
  Formula II Concentrations in Mouse Whole Blood, Mean: 501 ng/mL
2 mg/kg IP QD x 3 days, Day 3, 6.00 h, individual animals 7, 8, 9
  Formula II Concentrations in Mouse Whole Blood: 416 ng/mL and 745 ng/mL and 604 ng/mL
2 mg/kg IP QD x 3 days, Day 3, 6.00 h
  Formula II Concentrations in Mouse Whole Blood, Mean: 588 ng/mL
2 mg/kg IP QD x 3 days, Day 3, 24.0 h, individual animals 7, 8, 9
  Formula II Concentrations in Mouse Whole Blood: 17.6 ng/mL and 59.6 ng/mL and 48.6 ng/mL
2 mg/kg IP QD x 3 days, Day 3, 24.0 h
  Formula II Concentrations in Mouse Whole Blood, Mean: 41.9 ng/mL
2 mg/kg or 10 mg/kg IP QD for three days, mice
  concentrations in whole blood over time (in words): sufficient concentrations in whole blood over time
10 mg/kg IP QD x 3 days, Day 1, 1.00 h, individual animals 10, 11, 12
  Formula II Concentrations in Mouse Whole Blood: 560 ng/mL and 641 ng/mL and 769 ng/mL
10 mg/kg IP QD x 3 days, Day 1, 1.00 h
  Formula II Concentrations in Mouse Whole Blood, Mean: 657 ng/mL
10 mg/kg IP QD x 3 days, Day 1, 2.00 h, individual animals 10, 11, 12
  Formula II Concentrations in Mouse Whole Blood: 793 ng/mL
10 mg/kg IP QD x 3 days, Day 1, 6.00 h, individual animals 10, 11, 12
  Formula II Concentrations in Mouse Whole Blood: 1000 ng/mL and 1950 ng/mL and 544 ng/mL

Reference: patent US20210369684A1 (MOUNT TAM THERAPEUTICS, INC., priority 2018, published 2021)
